The source of these data is patent US20230165252A1, “ACTIVE COMPOUND COMBINATIONS” (Bayer Aktiengesellschaft, priority 2020, published 2023).

As usually defined, the chromatographic logP is a lipophilicity value derived from retention on a column.

The series in a line: Measurement of Log P values by HPLC on reversed phase columns (EEC directive 79/831 Annex V.A8), methods [a], [b], [c]. The series is classed as physicochemical. The note with it: for chromatographic logP: reversed-phase HPLC column.
Setting [1] is: HPLC on reversed phase column, method [a].

Protocol: Measurement of Log P values as provided herein was performed according to EEC directive 79/831 Annex V.A8 by HPLC (High Performance Liquid Chromatography) on reversed phase columns with the following methods: • ^[a]

Where the note is “method [a]”, `Cc1ccc(C(F)(F)CNC(=O)c2c(Oc3cccc(Cl)c3)nnc(Cl)c2C)c(C)c1` [Compound I-790, 6-chloro-3-(3-chlorophenoxy)-N-[2-(2,4-dimethylphenyl)-2,2-difluoro-ethyl]-5-methyl-pyridazine-4-carboxamide] registered a chromatographic logP of 4.27.
Consider `Cc1ccc(C(F)(F)CNC(=O)c2c(Oc3cccc(C4CC4)c3F)nnc(Cl)c2C)c(Br)c1` [Compound I-840, N-[2-(2-bromo-4-methylphenyl)-2,2-difluoroethyl]-6-chloro-3-(3-cyclopropyl-2-fluoro-phenoxy)-5-methylpyridazine-4-carboxamide], for which the chromatographic logP under setting [1] is 4.57.
With `COc1ccc(C(F)(F)CNC(=O)c2cc(Cl)nnc2Oc2cccc(C(F)(F)F)c2)c(Cl)c1` [I-007], the LogP under setting [1] is 4.00^[a].
On to `Cc1cc(C(=O)NCC(F)(F)c2ccc(C3CCCCC3)cc2Cl)c(Oc2cccc(C(F)(F)F)c2)nn1` [I-018], for which, under setting [1], the LogP is 5.44^[a].
For `Cc1cc(C(=O)NCC(F)(F)c2ccc(C3CCC3)cc2Cl)c(Oc2cccc(C(F)(F)F)c2)nn1` [I-028], under setting [1], the LogP is 4.83^[a].
The same measure, in the same setting: for `COc1ccc(CCNC(=O)c2cc(Cl)nnc2Oc2cccc(C(F)(F)F)c2)cc1` [I-036] the value was 3.61^[a]; for `O=C(NCCc1ncccc1C(F)(F)F)c1cc(Cl)nnc1Oc1cccc(C(F)(F)F)c1` [I-037], 3.65^[a]; for `Cc1ccc(C(F)(F)CNC(=O)c2c(Oc3cccc(C(F)(F)F)c3)nnc(Cl)c2NCC(C)(C)O[Si](C)(C)C)c(C)c1` [I-064], 6.32^[a].
Consider `O=C(NCC(F)(F)c1ccc(F)cc1F)c1cc(Cl)nnc1Oc1cccc(C(F)(F)F)c1` [I-067], for which the LogP under setting [1] is 3.75^[a].
For the molecule `O=C(NCCc1ccc(C(F)(F)F)cn1)c1cc(Cl)nnc1Oc1cccc(C(F)(F)F)c1` [I-068], the LogP under setting [1] is 3.53^[a].
For the molecule `Cc1ccc(C(F)(F)CNC(=O)c2c(Oc3cccc(C(F)(F)F)c3)nnc(Cl)c2[S+](C)[O-])c(C)c1` (stereo not shown) [I-072], the LogP under setting [1] was 3.75^[a].
As to `CC(CNC(=O)c1cc(Cl)nnc1Oc1cccc(C(F)(F)F)c1)c1ccc(Cl)cc1Cl` (stereo not shown) [I-075], under setting [1], the LogP is 4.68^[a].
Turning to `CC(=O)N(C)Cc1c(Cl)nnc(Oc2cccc(C(F)(F)F)c2)c1C(=O)NCCc1ccc(C)cc1C` [I-077], the LogP under setting [1] is 3.65^[a].
As for `O=C(NCC(F)(F)c1ccc(SCC(F)(F)F)cc1Cl)c1cc(Cl)nnc1Oc1cccc(C(F)(F)F)c1` [I-087], the LogP under setting [1] was 4.45^[a].
`O=C(NCC(F)(F)c1ccc(Cl)cn1)c1cc(Cl)nnc1Oc1cccc(C(F)(F)F)c1` [I-108]: the LogP under setting [1] was 3.65^[a].
Same read-out and setting: next, `O=C(NCC(F)(F)c1ccc(Cl)cn1)c1cc(Cl)nnc1Oc1cccc(C(F)F)c1` [I-158]: 3.32^[a]; `Cc1ccc(C(F)(F)CNC(=O)c2cc(Cl)nnc2Oc2cncc(Br)c2)c(C)c1` [I-173]: 3.78^[a].
As to `CCOc1c(Cl)nnc(Oc2cccc(C(F)(F)F)c2)c1C(=O)NCC(F)(F)c1ccc(C)cc1C` [I-181], under setting [1], the LogP was 4.68^[a].
Turning to `Cc1cnnc(Oc2cccc(C(F)(F)F)c2)c1C(=O)NCC(F)(F)c1ccc(Cl)cc1Cl` [I-183], the LogP under setting [1] is 3.78^[a].
In the case of `Cc1c(Cl)nnc(Oc2cccc(C3CC3)c2F)c1C(=O)NCCc1ccc(Cl)cc1Cl` [I-215], the LogP under setting [1] was 4.58^[a].
For the molecule `C=C(C)c1cc(C(=O)NCC(F)(F)c2ccc(C)cc2C)c(Oc2cccc(C(F)(F)F)c2)nn1` [I-222], the LogP (HPLC method [a]) was 4.87^[a].
`COc1ccc(CCNC(=O)c2cc(Cl)nnc2Oc2cccc(C(F)(F)F)c2)cc1OC` [I-268]: the LogP (HPLC method [a]) was 3.26^[a].
Still for that read-out and setting: for `O=C(NCC(F)(F)c1ccc(Cl)cc1)c1c(Oc2cccc(C(F)(F)F)c2)nnc(Cl)c1NC1CCCCC1` [I-272] the value was 4.98^[a].
With `Cc1cc(C(=O)NCCc2ccc(C(F)F)cn2)c(Oc2cccc(C3CC3)c2)nn1` [I-282], the LogP (HPLC method [b]) was 2.82^[b].
For `O=C(NCc1cnc2ccccc2c1)c1cc(Cl)nnc1Oc1cccc(C(F)(F)F)c1` [I-306], where the note is “HPLC method [a]”, the LogP was 2.71^[a].
The same measure, in the same setting: for `O=C(NCCc1ccc(C(F)F)cc1)c1cc(Cl)nnc1Oc1cccc(C(F)(F)F)c1` [I-309] the value was 3.78^[a]; for `O=C(NCC(F)(F)c1ccc(Br)cc1Cl)c1cc(C2CC2)nnc1Oc1cccc(C(F)(F)F)c1` [I-312], 4.79^[a];.
Still for that read-out and setting: for `O=C(NCC(F)(F)c1ccc(Br)cc1Cl)c1cc(Cl)nnc1Oc1cccc(C(F)(F)F)c1F` [I-315] the value was 4.71^[a].
The same measure, in the same setting: for `Cc1ccc(C(F)(F)CNC(=O)c2cc(-c3ccncc3)nnc2Oc2cccc(C(F)(F)F)c2)c(C)c1` [I-316] the value was 3.65^[a]; for `Cc1c(Cl)nnc(Oc2cccc(C(F)(F)F)c2)c1C(=O)NCC(F)(F)c1ccc(Cl)cc1Cl` [I-338], 4.43^[a]; for `Cc1ccc(CCNC(=O)c2cc(Cl)nnc2Oc2cccc(C(F)(F)F)c2)c(-c2nccn2C)c1` [I-341], 1.85^[a].
For `O=C(NCC(F)(F)c1ccc(C2CC2)cc1Cl)c1cc(Cl)nnc1Oc1cccc(C(F)(F)F)c1` [I-360], the LogP (HPLC method [a]) was 4.58^[a].
The same measure, in the same setting: for `O=C(NCc1cncc2ccccc12)c1cc(Cl)nnc1Oc1cccc(C(F)(F)F)c1` [I-379] the value was 2.14^[a]; for `Cc1cc(Br)ccc1C(F)(F)CNC(=O)c1cc(Cl)nnc1Oc1cccc(C(F)(F)F)c1` [I-404], 4.57^[a].
Take `Cc1ccc(C(F)(F)CNC(=O)c2cc(C)nnc2Oc2cccc(C(F)(F)F)c2)c(C)c1` [I-411]: the LogP (HPLC method [a]) is 4.00^[a].
Same read-out and setting: for `O=C(NCC(F)(F)c1ccc(C(F)(F)F)cc1Cl)c1cc(Cl)nnc1Oc1cccc(C(F)(F)F)c1` [I-418] the value was 4.45^[a].
In the case of `CCSc1c(Cl)nnc(Oc2cccc(C(F)(F)F)c2)c1C(=O)NCC(F)(F)c1ccc(C)cc1C` [I-442], under “method [a]”, the LogP is 4.87^[a].
Turning to `O=C(NCC(F)(F)c1ccc(Cl)cc1Br)c1cc(Cl)nnc1Oc1cccc(C(F)(F)F)c1` [I-478], the LogP (method [a]) is 4.68^[a].
Still for that read-out and setting: for `COc1ccc(CCNC(=O)c2c(Oc3cccc(C(F)(F)F)c3)nnc(Cl)c2C)c(OC)c1` [I-500] the value was 3.65^[a].
As to `Cc1ccc(C(F)(F)CNC(=O)c2cc(-c3cn[nH]c3)nnc2Oc2cccc(C(F)(F)F)c2)c(C)c1` [I-515], the LogP (method [a]) was 3.65^[a].
Same read-out and setting: next, `Cc1cc(C(=O)NCCc2ccc(C(F)F)cn2)c(Oc2cccc(C(F)(F)F)c2)nn1` [I-525]: 2.57^[a];.
Still for that read-out and setting: for `O=C(NCCc1ccc(-c2ccncc2)cc1)c1cc(Cl)nnc1Oc1cccc(C(F)(F)F)c1` [I-542] the value was 2.13^[a]; for `Cc1cc(C(=O)NCCc2cccc3oc(C)nc23)c(Oc2cccc(C(F)(F)F)c2)nn1` [I-543], 2.96^[a].
On the same count and under the same terms, for `O=C(NCCc1ccc2c(c1)CCO2)c1cc(Cl)nnc1Oc1cccc(C(F)(F)F)c1` [I-551] the value was 3.65^[a].
For the molecule `O=C(NCc1cccc2cnccc12)c1cc(Cl)nnc1Oc1cccc(C(F)(F)F)c1` [I-559], the LogP (method [a]) was 2.14^[a].
On the same count and under the same terms, next, `CCc1cccc(Oc2nnc(Cl)cc2C(=O)NCC(F)(F)c2ccc(C)cc2C)c1` [I-570]: 4.68^[a].
On the same count and under the same terms, for `O=C(NCCc1ccc2c(c1)OCCO2)c1cc(Cl)nnc1Oc1cccc(C(F)(F)F)c1` [I-573] the value was 3.53^[a]; for `C#Cc1cc(C(=O)NCC(F)(F)c2ccc(C)cc2C)c(Oc2cccc(C(F)(F)F)c2)nn1` [I-577], 4.31^[a]; for `O=C(NCC(F)(F)c1ccc(Cl)cc1Cl)c1cc(Cl)nnc1Oc1cccc(C2CC2)c1F` [I-598], 4.71^[a].
As for `Cc1ccc(C2(CNC(=O)c3cc(Cl)nnc3Oc3cccc(C(F)(F)F)c3)CC2)cc1` [I-601], for the setting “method [a]”, the LogP was 4.58^[a].
Consider `O=C(NCC(F)(F)Oc1ccc(C(F)(F)F)cc1Cl)c1cc(Cl)nnc1Oc1cccc(C(F)(F)F)c1` [I-633], for which the LogP (method [a]) was 4.58^[a].
Still for that read-out and setting: for `O=C(NCCc1ncc(Cl)cn1)c1cc(Cl)nnc1Oc1cccc(C(F)(F)F)c1` [I-635] the value was 3.05^[a]; for `COCCc1c(C2CC2)nnc(Oc2cccc(C(F)(F)F)c2)c1C(=O)NCC(F)(F)c1ccc(C)cc1C` [I-636], 4.57^[a].
Take `Cc1c(C2CC2)nnc(Oc2cccc(C(F)(F)F)c2)c1C(=O)NCC(F)(F)c1ccc(Cl)cc1Cl` [I-642]: the LogP (method [a]) is 4.43^[a].
On to `Cc1ccc(C(F)(F)CNC(=O)c2c(Oc3cccc(C(F)(F)F)c3)nnc(C3CC3)c2NC2CC2)c(C)c1` [I-650], for which the LogP (method [a]) was 4.10^[a].
The same measure, in the same setting: for `Cc1ccc(C(F)(F)CNC(=O)c2cc(CCC#N)nnc2Oc2cccc(C(F)(F)F)c2)c(C)c1` [I-662] the value was 3.78^[a]; for `C=CCOc1c(Cl)nnc(Oc2cccc(C(F)(F)F)c2)c1C(=O)NCC(F)(F)c1ccc(C)cc1C` [I-684], 4.87^[a].
Consider `Cc1cnn(CCNC(=O)c2cc(C)nnc2Oc2cccc(C(F)(F)F)c2)c1` [I-691], for which the LogP (method [a]) is 2.58^[a].
Still for that read-out and setting: next, `CON(CCc1ccc(Cl)cc1Cl)C(=O)c1c(Oc2cccc(C3CC3)c2F)nnc(Cl)c1C` [I-739]: 5.36^[a].
In the case of `CNc1c(Cl)nnc(Oc2cccc(C3CC3)c2F)c1C(=O)NCCc1ccc(Cl)cc1Cl` [I-757], the LogP (method [a]) is 4.09^[a].
As to `Cc1ccc(C(F)(F)CNC(=O)c2cc(Cl)nnc2Oc2ccc3[nH]ccc3c2)c(C)c1` [I-769], the LogP (method [a]) is 3.78^[a].
As for `C=C(C)OC(=O)N(CC(F)(F)c1ccc(C)cc1C)C(=O)c1cc(Cl)nnc1Oc1cccc(C(F)(F)F)c1` [I-785], the LogP (method [a]) was 5.51^[a].
The same measure, in the same setting: for `COCCc1cc(C(=O)NCC(F)(F)c2ccc(C)cc2C)c(Oc2cccc(C(F)(F)F)c2)nn1` [I-796] the value was 4.00^[a]; for `Cc1ccc(C(F)(F)CNC(=O)c2cc(Cc3ccccc3)nnc2Oc2cccc(C(F)(F)F)c2)c(C)c1` [I-797], 4.95^[a].
On to `Cc1ccc(C(F)(F)CNC(=O)c2cc(CC3CCC3)nnc2Oc2cccc(C(F)(F)F)c2)c(C)c1` [I-798], for which, under “method [a]”, the LogP was 5.02^[a].
With `Cc1ccc(C(F)(F)CNC(=O)c2c(Oc3cccc(C(F)(F)F)c3)nnc(Cl)c2NCCC2CC2)c(C)c1` [I-809], the LogP (method [a]) was 4.95^[a].
For the molecule `O=C(NCC(F)(F)c1cc(Cl)sc1Cl)c1cc(Cl)nnc1Oc1cccc(C(F)(F)F)c1` [I-825], the LogP under setting [1] is 4.73^[a].
